Experimental data from ChEMBL document CHEMBL3774335, “Tactical Approaches to Interconverting GPCR Agonists and Antagonists” (J Med Chem, 2016).
Each block holds one molecule with its values, some of them ahead of it.

How the values were obtained:
[1] = biological target: Vasopressin V2 receptor (Homo sapiens, UniProt P30518); test: Displacement of [3H]AVP from human Vasopressin V2 receptor expressed in HeLa cells after 2 hrs by liquid scintillation counter; assay type: cell-based
[2] = biological target: Melanocortin receptor 4 (Homo sapiens, UniProt P32245); test: Displacement of 125I-NDP-a-MSH from human Melanocortin receptor 4 after 2 hrs by TopCount microplate scintillation and luminescence counter
[3] = Displacement of 125I-[Sar1, Ile8] AngII from rat AT1 receptor expressed in COS1 cells; assay type: cell-based; settings: cos-1
[4] = biological target: Histamine H3 receptor (Homo sapiens) (UniProt Q9Y5N1); test: Inverse agonist activity at human histamine H3 receptor expressed in SK-N-MC cells by beta-galactosidase reporter gene assay relative to histamine; assay type: cell-based
[5] = biological target: T1, B2 bradykinin receptor (Homo sapiens, UniProt P30411); test: Displacement of [3H]BK from cloned human B2 bradykinin receptor expressed in CHO cells after 2 hrs by liquid scintillation counter; assay type: cell-based
T1 sequence (P30411 whole entry): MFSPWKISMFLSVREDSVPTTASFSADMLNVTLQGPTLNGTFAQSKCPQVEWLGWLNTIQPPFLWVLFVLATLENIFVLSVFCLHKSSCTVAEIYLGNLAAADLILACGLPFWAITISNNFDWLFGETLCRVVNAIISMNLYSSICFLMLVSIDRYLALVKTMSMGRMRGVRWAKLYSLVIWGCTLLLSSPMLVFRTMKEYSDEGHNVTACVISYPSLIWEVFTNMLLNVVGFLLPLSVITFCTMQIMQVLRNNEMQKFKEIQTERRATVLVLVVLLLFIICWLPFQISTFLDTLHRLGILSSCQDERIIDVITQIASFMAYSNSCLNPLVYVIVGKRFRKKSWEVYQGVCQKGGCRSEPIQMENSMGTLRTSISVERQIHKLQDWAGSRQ

[6] = biological target: Histamine H3 receptor (Homo sapiens) (UniProt Q9Y5N1); test: Partial agonist activity at human histamine H3 receptor expressed in SK-N-MC cells by beta-galactosidase reporter gene assay relative to histamine; assay type: cell-based
[7] = biological target: T2, Type-2 angiotensin II receptor (Homo sapiens, UniProt P50052); test: Binding affinity to angiotensin II receptor (unknown origin)
T2 sequence (P50052 whole entry): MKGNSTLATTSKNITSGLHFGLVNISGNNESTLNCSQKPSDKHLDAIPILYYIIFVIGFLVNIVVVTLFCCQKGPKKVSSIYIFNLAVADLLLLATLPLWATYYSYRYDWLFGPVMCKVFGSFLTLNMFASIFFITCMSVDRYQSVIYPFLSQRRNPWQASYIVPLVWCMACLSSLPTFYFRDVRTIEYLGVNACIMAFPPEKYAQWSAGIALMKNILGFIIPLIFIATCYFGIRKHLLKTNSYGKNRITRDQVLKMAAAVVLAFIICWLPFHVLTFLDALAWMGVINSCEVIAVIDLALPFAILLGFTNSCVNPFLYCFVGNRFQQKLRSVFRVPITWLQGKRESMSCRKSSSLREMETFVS

Sequence of Histamine H3 receptor (Homo sapiens) (Q9Y5N1 whole entry): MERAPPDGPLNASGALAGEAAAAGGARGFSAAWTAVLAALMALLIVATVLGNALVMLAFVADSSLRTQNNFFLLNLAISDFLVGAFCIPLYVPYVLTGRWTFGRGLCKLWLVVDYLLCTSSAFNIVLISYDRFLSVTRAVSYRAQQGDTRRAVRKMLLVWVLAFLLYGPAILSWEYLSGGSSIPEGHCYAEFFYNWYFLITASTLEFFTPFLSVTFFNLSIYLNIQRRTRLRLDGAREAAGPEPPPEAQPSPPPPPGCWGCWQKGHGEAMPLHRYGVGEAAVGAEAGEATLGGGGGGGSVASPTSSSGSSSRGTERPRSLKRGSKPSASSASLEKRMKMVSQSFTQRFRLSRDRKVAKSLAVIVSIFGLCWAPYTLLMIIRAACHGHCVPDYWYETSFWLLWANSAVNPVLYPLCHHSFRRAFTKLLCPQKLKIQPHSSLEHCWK
Sequence of Melanocortin receptor 4 (P32245 whole entry): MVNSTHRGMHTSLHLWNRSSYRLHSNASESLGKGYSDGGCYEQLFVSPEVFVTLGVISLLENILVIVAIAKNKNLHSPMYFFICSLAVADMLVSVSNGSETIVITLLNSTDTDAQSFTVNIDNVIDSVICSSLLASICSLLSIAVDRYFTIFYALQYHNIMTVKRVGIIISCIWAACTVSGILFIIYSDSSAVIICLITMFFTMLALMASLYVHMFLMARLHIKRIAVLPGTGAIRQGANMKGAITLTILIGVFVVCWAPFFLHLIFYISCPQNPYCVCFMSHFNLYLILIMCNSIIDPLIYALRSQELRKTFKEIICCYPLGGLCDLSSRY
Sequence of Vasopressin V2 receptor (P30518 whole entry): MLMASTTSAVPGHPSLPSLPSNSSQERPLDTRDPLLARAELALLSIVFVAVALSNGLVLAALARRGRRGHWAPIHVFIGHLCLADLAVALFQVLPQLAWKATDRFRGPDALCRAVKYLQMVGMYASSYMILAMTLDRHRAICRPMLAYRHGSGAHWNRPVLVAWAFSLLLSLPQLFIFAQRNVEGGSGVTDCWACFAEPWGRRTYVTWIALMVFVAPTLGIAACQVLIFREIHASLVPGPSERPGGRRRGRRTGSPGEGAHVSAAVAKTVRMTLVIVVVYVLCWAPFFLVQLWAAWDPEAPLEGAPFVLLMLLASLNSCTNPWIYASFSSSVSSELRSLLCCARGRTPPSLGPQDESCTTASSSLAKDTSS

IC50 [1]: 18 nM
Structure (SMILES): Cc1cc(N)ccc1C(=O)N1CCCCc2cc(Cl)ccc21

Ki [2]: 6 nM
Structure (SMILES): CCN(C(C)=O)C(C)c1ccccc1N1CCN(C(=O)[C@H](CC(=O)NC2CCC2)Cc2ccc(Cl)cc2)CC1 (stereo partly drawn)

Structure (SMILES): CCCc1nc(C(C)(C)O)c(C(=O)O)n1Cc1ccc(-c2cc(Cc3ccc(O)cc3)ccc2-c2nnn[nH]2)cc1
Kd [3]: 21 nM

Intrinsic activity [4]: 29%
Structure (SMILES): c1nc(CCCC2CCCNC2)c[nH]1 (stereo not drawn)

Structure (SMILES): CCCc1nc(C(C)(C)O)c(C(N)=O)n1Cc1ccc(-c2ccccc2-c2nnn[nH]2)cc1
Kd [3]: 0.8 nM

Ki [2]: 2 nM
Structure (SMILES): CCN(C(C)=O)C(C)c1ccccc1N1CCN(C(=O)[C@H](CC(=O)N2CCN(C(=O)OC(C)(C)C)CC2)Cc2ccc(Cl)cc2)CC1 (stereo partly drawn)

IC50 [5]: 0.36 nM
Structure (SMILES): Cc1cc(OCc2ccccn2)c2cccc(OCc3c(Cl)ccc(N(C)C(=O)CNC(=O)/C=C/c4ccc(/C=C/c5ccncc5)nc4)c3Cl)c2n1

Intrinsic activity [6]: 34%
Structure (SMILES): c1nc(CCC2CCCNC2)c[nH]1 (stereo not drawn)

Ki [7]: 2.1 nM
Structure (SMILES): CCCCOC(=O)NS(=O)(=O)c1ccc(CC(C)C)cc1-c1ccc(Cn2c(CC)nc3c(C)cc(C)nc32)cc1

Ki [7]: 1.5 nM
Structure (SMILES): CCCCOC(=O)NS(=O)(=O)c1ccc(CCC)cc1-c1ccc(Cn2c(CC)nc3c(C)cc(C)nc32)cc1

Intrinsic activity [6]: 60%
Structure (SMILES): c1nc(CCC2CCNCC2)c[nH]1

Structure (SMILES): CCCc1nc(C(C)(C)O)c(C(N)=O)n1Cc1ccc(-c2cc(Cc3ccc(O)cc3)ccc2-c2nnn[nH]2)cc1
Kd [3]: 48 nM

Structure (SMILES): CCCc1nc(C(C)(C)O)c(C(=O)O)n1Cc1ccc(-c2ccccc2-c2nnn[nH]2)cc1 [OLMESARTAN]
Kd [3]: 2.3 nM
